Results: PubChem BioAssay AID208 (DTP/NCI, 2004)
Values joined by “and” are separate entries in the source; they are usually repeats but may differ in a detail not shown here. Identical values can stand only once. Records with an inconclusive call do not appear. *1 amine or outer side, *2 acyl side, *3 side chain or, on linkers, in order; H or OH if unused. Where a SMILES comes first, the peptide text is derived from it. Bridges are numbered along the chain shown (N, C = ends). Roman numbers before positions name the chains, in order. [ ]: non-standard residue; d: D form. Actinocin(9to1) = Cc1c2oc3c(C)ccc(C(=O)[*:1])c3nc-2c(C(=O)[*:2])c(N)c1=O; aThr = C[C@H](O)[C@H](N)C(=O)O; NMeV = CN[C@H](C(=O)O)C(C)C; Sar = CNCC(=O)O

Tested on: HT29 intrarenal xenograft, nude mice, tumor weight change
Assay: NCI In Vivo Anticancer Drug Screen. Data for tumor model HT29;CX-1 Human Adenocarcinoma (MER+) (intrarenal inoculation) in NU/NU BALB/C (nude) mice
Details: endpoint: mean tumor weight change, higher = larger tumour
Procedure: The antitumor activity of compounds was measured in mice bearing transplantable tumors. Survival or tumor size were measured and the results are expressed as the measurement made in the treated group (T) divided by the measurement made in the vehicle treated control group (C). The tumor model used in this assay is HT29;CX-1 Human Adenocarcinoma (MER+) (intrarenal inoculation) in NU/NU BALB/C (nude) mice

[1] = dose: 50.0 mg/kg/injection, schedule: Q01DX010 (sc), vehicle: saline
[2] = dose: 100.0 mg/kg/injection, schedule: Q01DX010 (sc), vehicle: saline
[3] = dose: 400.0 mg/kg/injection, schedule: Q01DX010 (sc), vehicle: saline
[4] = dose: 75.0 mg/kg/injection, schedule: Q04DX004 (sc), vehicle: saline
[5] = dose: 100.0 mg/kg/injection, schedule: Q04DX004 (sc), vehicle: saline
[6] = dose: 150.0 mg/kg/injection, schedule: Q04DX004 (sc), vehicle: saline
[7] = dose: 300.0 mg/kg/injection, schedule: Q04DX004 (sc), vehicle: saline
[8] = dose: 600.0 mg/kg/injection, schedule: Q04DX004 (sc), vehicle: saline
[9] = dose: 25.0 mg/kg/injection, schedule: Q01DX010 (sc), vehicle: saline
[10] = dose: 200.0 mg/kg/injection, schedule: Q01DX010 (sc), vehicle: saline

With `CC(O)CCC(=O)c1ccoc1` (configuration not stated) the T/C (dose: 3.75 mg/kg/injection, schedule: Q01DX010 (ip), vehicle: saline) was 97 % of control, the T/C (dose: 7.5 mg/kg/injection, schedule: Q01DX010 (ip), vehicle: saline) was 88 % of control and the T/C (dose: 15.0 mg/kg/injection, schedule: Q01DX010 (ip), vehicle: saline) was 108 % of control. The T/C (dose: 30.0 mg/kg/injection, schedule: Q01DX010 (ip), vehicle: saline) was 89 % of control.

With `COc1cc(C)c2c(c1C=O)Oc1c(c(C)c(O)c3c1C(O)OC3=O)OC2=O` (configuration not stated) the T/C [1] was 42 % of control, the T/C [2] was 81 % of control and the T/C [3] was 38 % of control.

For `CO[C@H]1C[C@](C)(O)Cc2cc3c(c(O)c21)C(=O)c1c(O)cc2c(c1C3=O)O[C@@H]1O[C@@]2(C)[C@H](O)[C@@H](N(C)C)[C@@H]1O`, the T/C (dose: 6.25 mg/kg/injection, schedule: Q01DX010 (sc), vehicle: other) was 65 % of control and the T/C (dose: 12.5 mg/kg/injection, schedule: Q01DX010 (sc), vehicle: other) was 76 % of control.

With `Cc1c2oc3c(C)ccc(C(=O)N[C@@H]4C(=O)N[C@H](C(C)C)C(=O)N5CCC[C@H]5C(=O)N(C)CC(=O)N(C)[C@@H](C(C)C)C(=O)O[C@H]4C)c3nc-2c(C(=O)N[C@@H]2C(=O)N[C@H](C(C)C)C(=O)N3CCC[C@H]3C(=O)N(C)CC(=O)N(C)[C@@H](C(C)C)C(=O)O[C@H]2C)c(N)c1=O` (I: [aThr][dV]P[Sar][NMeV] / II: [aThr][dV]P[Sar][NMeV]; ester I:1-I:C, II:1-II:C; linker I:N-II:N via Actinocin(9to1)) the T/C (dose: 0.03 mg/kg/injection, schedule: Q04DX004 (ip), vehicle: saline) was 77 % of control, the T/C (dose: 0.05 mg/kg/injection, schedule: Q04DX004 (ip), vehicle: saline) was 77 % of control and the T/C (dose: 0.08 mg/kg/injection, schedule: Q04DX004 (ip), vehicle: saline) was 97 % of control.

`N#CC(=C1SCS1)[N+](=O)[O-]` was tested, and the T/C (dose: 3.0 mg/kg/injection, schedule: Q04DX004 (sc), vehicle: saline) was 69 % of control and the T/C (dose: 6.0 mg/kg/injection, schedule: Q04DX004 (sc), vehicle: saline) was 113 % of control.

With `Nc1ncnc2c1ccn2C1OC(CO)C(O)C1O` (configuration not stated) the T/C (dose: 2.0 mg/kg/injection, schedule: Q01DX010 (sc), vehicle: Klucel (hydroxypropylcellulose) (HPC)) was 96 % of control and the T/C (dose: 4.0 mg/kg/injection, schedule: Q01DX010 (sc), vehicle: Klucel (hydroxypropylcellulose) (HPC)) was 81 % of control.

With `O=P1(NCCCl)OCCCN1CCCl` (configuration not stated) the T/C [4] was 68 % of control.

With `CC[C@@]1(O)C[C@H](OC2CC(N(C)C)C(OC3CC(O)C(OC4CCC(=O)C(C)O4)C(C)O3)C(C)O2)c2c(cc3c(c2O)C(=O)c2c(O)cccc2C3=O)[C@H]1C(=O)OC` (some centres not stated) the T/C (dose: 1.0 mg/kg/injection, schedule: Q01DX010 (ip), vehicle: water) was 58 % of control and the T/C (dose: 2.0 mg/kg/injection, schedule: Q01DX010 (ip), vehicle: water) was 37 % of control.

In the case of `Oc1ccc(O)cc1`, the T/C [5] was 106 % of control.

For `O=P1(N(CCCl)CCCl)NCCCO1` (configuration not stated), the T/C (dose: 60.0 mg/kg/injection, schedule: Q04DX004 (ip), vehicle: saline) was 62 % of control and 77 % of control and 83 % of control and the T/C [5] was 19 % of control and 21 % of control.

In the case of `Nc1nc(N)c(N=O)c(Nc2ccc(Br)cc2)n1`, the T/C (dose: 150.0 mg/kg/injection, schedule: Q04DX004 (sc), vehicle: saline with Tween-80) was 106 % of control, the T/C (dose: 300.0 mg/kg/injection, schedule: Q04DX004 (sc), vehicle: saline with Tween-80) was 83 % of control and the T/C (dose: 600.0 mg/kg/injection, schedule: Q04DX004 (sc), vehicle: saline with Tween-80) was 120 % of control. For the same compound, the T/C (dose: 1200.0 mg/kg/injection, schedule: Q04DX004 (sc), vehicle: saline with Tween-80) was 115 % of control.

For `O=C1OC(C(O)CO)C(O)=C1O` (configuration not stated), the T/C [3] was 113 % of control and the T/C (dose: 800.0 mg/kg/injection, schedule: Q01DX010 (sc), vehicle: saline) was 167 % of control.

For `COC(=O)[C@@]12OC[C@]34[C@H]([C@@H](O)[C@@H]1O)[C@@]1(C)CC(=O)C(O)=C(C)[C@@H]1C[C@H]3OC(=O)[C@H](OC(=O)/C=C(\C)C(C)C)[C@@H]24`, the T/C (dose: 0.5 mg/kg/injection, schedule: Q01DX010 (sc), vehicle: saline + alcohol) was 35 % of control.

In the case of `OCC1OC(n2cnc3c(=S)nc[nH]c32)C(O)C1O` (configuration not stated), the T/C [6] was 91 % of control, the T/C [7] was 173 % of control and the T/C [8] was 103 % of control.

For `COc1cc(Cc2nccc3cc(OC)c(OC)cc23)c(C(C)=O)cc1OC`, the T/C [4] was 86 % of control, the T/C [6] was 84 % of control and the T/C [7] was 55 % of control. For the same compound, the T/C [8] was 33 % of control.

For `O=C(O)CC(NC(=O)CP(=O)(O)O)C(=O)O` (configuration not stated), the T/C [9] was 123 % of control, the T/C [1] was 94 % of control and the T/C [2] was 91 % of control. The T/C [10] was 70 % of control.

`C(CSC1=NCCN1)CSC1=NCCN1` was tested, and the T/C [9] was 78 % of control, the T/C [2] was 66 % of control and the T/C [10] was 46 % of control.

`Nc1nc(=O)n(C2OC(CO)C(O)C2O)cc1F` (configuration not stated) was tested, and the T/C (dose: 300.0 mg/kg/injection, schedule: Q04DX004 (ip), vehicle: saline) was 66 % of control, the T/C (dose: 600.0 mg/kg/injection, schedule: Q04DX004 (ip), vehicle: saline) was 64 % of control and the T/C (dose: 900.0 mg/kg/injection, schedule: Q04DX004 (ip), vehicle: saline) was 53 % of control. For the same compound, the T/C (dose: 1200.0 mg/kg/injection, schedule: Q04DX004 (ip), vehicle: saline) was 88 % of control.

For `O=C(CCCN1CCC(C(O)c2ccc(F)cc2)CC1)c1ccc(F)cc1` (configuration not stated), the T/C (dose: 12.5 mg/kg/injection, schedule: Q04DX004 (ip), vehicle: saline with Tween-80) was 52 % of control, the T/C (dose: 25.0 mg/kg/injection, schedule: Q04DX004 (ip), vehicle: saline with Tween-80) was 71 % of control and the T/C (dose: 50.0 mg/kg/injection, schedule: Q04DX004 (ip), vehicle: saline with Tween-80) was 106 % of control. The T/C (dose: 100.0 mg/kg/injection, schedule: Q04DX004 (ip), vehicle: saline with Tween-80) was 43 % of control.

`N#CC(C#N)=C/C=C/c1cccc([N+](=O)[O-])c1` was tested, and the T/C (dose: 25.0 mg/kg/injection, schedule: Q01DX010 (sc), vehicle: Klucel (hydroxypropylcellulose) (HPC)) was 81 % of control, the T/C (dose: 50.0 mg/kg/injection, schedule: Q01DX010 (sc), vehicle: Klucel (hydroxypropylcellulose) (HPC)) was 90 % of control and the T/C (dose: 100.0 mg/kg/injection, schedule: Q01DX010 (sc), vehicle: Klucel (hydroxypropylcellulose) (HPC)) was 76 % of control. The T/C (dose: 200.0 mg/kg/injection, schedule: Q01DX010 (sc), vehicle: Klucel (hydroxypropylcellulose) (HPC)) was 63 % of control.

`Cc1cc(NCCCCCCCCNc2cc(C)nc3cc(N(C)C)ccc23)c2ccc(N(C)C)cc2n1` was tested, and the T/C (dose: 75.0 mg/kg/injection, schedule: Q04DX004 (sc), vehicle: distilled water + Tween-80 + alcohol) was 84 % of control, the T/C (dose: 150.0 mg/kg/injection, schedule: Q04DX004 (sc), vehicle: distilled water + Tween-80 + alcohol) was 62 % of control and the T/C (dose: 300.0 mg/kg/injection, schedule: Q04DX004 (sc), vehicle: distilled water + Tween-80 + alcohol) was 85 % of control. The T/C (dose: 600.0 mg/kg/injection, schedule: Q04DX004 (sc), vehicle: distilled water + Tween-80 + alcohol) was 35 % of control.

For `CC1CCC(n2cnc3c(Cl)ncnc32)O1` (configuration not stated), the T/C (dose: 150.0 mg/kg/injection, schedule: Q04DX004 (sc), vehicle: Klucel (hydroxypropylcellulose) (HPC)) was 76 % of control, the T/C (dose: 300.0 mg/kg/injection, schedule: Q04DX004 (sc), vehicle: Klucel (hydroxypropylcellulose) (HPC)) was 80 % of control and the T/C (dose: 600.0 mg/kg/injection, schedule: Q04DX004 (sc), vehicle: Klucel (hydroxypropylcellulose) (HPC)) was 64 % of control.

With `CC(C)C(N)C(=O)Nc1nncs1` (configuration not stated) the T/C [6] was 94 % of control, the T/C [7] was 74 % of control and the T/C [8] was 68 % of control.

In the case of `C=CS(=O)(=O)c1ccccc1`, the T/C [1] was 49 % of control and the T/C [2] was 82 % of control.

In the case of `C[C@H]1C[C@@H]2[C@H]([C@@H](O)C[C@@]3(C)[C@H]2CC[C@]3(O)C(=O)CO)[C@@]2(C)C=CC(=O)C=C12`, the T/C (dose: 200.0 mg/kg/injection, schedule: Q04DX004 (sc), vehicle: Klucel (hydroxypropylcellulose) (HPC)) was 14 % of control, the T/C (dose: 400.0 mg/kg/injection, schedule: Q04DX004 (sc), vehicle: Klucel (hydroxypropylcellulose) (HPC)) was 19 % of control and the T/C (dose: 800.0 mg/kg/injection, schedule: Q04DX004 (sc), vehicle: Klucel (hydroxypropylcellulose) (HPC)) was 29 % of control.

`CO[C@H](/C(C)=C/C=C/C(C)=C/c1coc(C)n1)[C@H](C)[C@H]1C[C@@H](O)[C@@]2(C)O[C@H]2/C=C/[C@@H](C)[C@@H]2C[C@@H](CC(=O)O2)C[C@H]2O[C@@H]2C(=O)O1` was tested, and the T/C (dose: 0.13 mg/kg/injection, schedule: Q04DX004 (sc), vehicle: Klucel (hydroxypropylcellulose) (HPC)) was 73 % of control and 88 % of control and the T/C (dose: 1.0 mg/kg/injection, schedule: Q04DX004 (sc), vehicle: Klucel (hydroxypropylcellulose) (HPC)) was 57 % of control.
